Results from patent publication US8497294B2, “Compositions comprising (S)-2-amino-1-(4-chlorophenyl)-1-[4-(1H-pyrazol-4-yl)-phenyl]-ethanol as modulator of protein kinases” (Astex Therapeutics Limited, priority 2007, dated 2013).

What was measured:
[1] = target: T1, protein kinase B (PKB), fusion protein PKB-PIF (Homo sapiens, UniProt P31751); test: PKB kinase inhibitory activity, in vitro radiometric assay; format: biochemical; settings: (radiometric) binding assay, relative to the other enantiomer
T1 construct: made in house
T1 sequence (P31751 with tags, fused parts or gaps limits assumed): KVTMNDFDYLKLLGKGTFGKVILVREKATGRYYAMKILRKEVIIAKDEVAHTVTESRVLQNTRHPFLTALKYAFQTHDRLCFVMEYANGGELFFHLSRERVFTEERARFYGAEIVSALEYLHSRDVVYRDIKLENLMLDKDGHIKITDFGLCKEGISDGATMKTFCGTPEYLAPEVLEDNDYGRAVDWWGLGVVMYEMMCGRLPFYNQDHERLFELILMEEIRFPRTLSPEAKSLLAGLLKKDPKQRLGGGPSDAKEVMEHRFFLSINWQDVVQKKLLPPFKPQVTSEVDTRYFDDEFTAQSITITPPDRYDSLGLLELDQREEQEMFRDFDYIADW
Text: The inhibition of protein kinase B (PKB) activity by compounds can be determined essentially as described by Andjelkovic et al. (Mol. Cell. Biol. 19, 5061-5072 (1999)) but using a fusion protein described as PKB-PIF and described in full by Yang et al (Nature Structural Biology 9, 940-944 (2002)). The protein is purified and activated with PDK1 as described by Yang et al. The peptide AKTide-2T (H-A-R—K—R-E-R-T-Y—S—F-G-H—H-A-OH) obtained from Calbiochem (#123900) is used as a substrate. A final concentration of 0.6 nM enzyme is used in a buffer that includes 20 mM MOPS pH 7.2, 30 μM ATP/γ^33P-ATP and 25 μM substrate. Compounds are added in DMSO solution to a final DMSO concentration of 2.5%. The reaction is allowed to proceed for 20 minutes before addition of excess orthophosphoric acid to quench activity. The reaction mixture is transferred to a phosphocellulose filter plate where the peptide binds and the unused ATP is washed away. After washing, scintillant is added and the incorporated activity measured by scintillation counting.

[2] = system: ROCK; settings: cited from earlier work
[3] = system: phosphorylation of GSK3β on serine 9 in U87MG cells; test: Cell based phospho-Ser9 GSK3β ELISA (mechanistic cellular assay); settings: for activity in mechanistic cellular ELISA assay: result in words
Description: The effect on inhibiting PKB in U87MG cells is determined by the ability of compounds to inhibit phosphorylation of the direct downstream substrate GSK3β on serine 9. Cells are plated in 96 well plates and allowed to recover overnight prior to addition of the inhibitor compound for 1 hour. After 1 hour, cell are fixed and blocked with 3% paraformaldehyde, 0.25% gluteraldehyde, 0.25% Triton X100 and 5% Marvel in TBS-T. Following this cells are incubated with primary antibody directed to the phosphorylated form of GSK3β (Cell Signaling) overnight at 4° C. After washing, cells are incubated with secondary antibody using the DELFIA reagents (Eu—N1 anti-rabbit IgG antibody) for 1 h, and following enhancement plates are read on a time-resolved fluorescence reader at excitation 340 nm and emission 640 nm. All cells are obtained from ECACC (European Collection of Cell Cultures).
1. U87MG cells plated at 12,500 cells/well in 160 ul media/well in a 96 well plate
2. Incubate for 24 hours at 37° C.
3. Treat cells with the inhibitor and DMSO control
4. Incubate for 1 hour at 37° C.
5. Media flicked from the plate and blot on paper
6. 100 μl fixing solution added to each well (3% paraformaldehyde, 0.25% gluteraldehyde, 0.25% Triton X100)
7. Incubate for 30 minutes at 37° C.
8. Wash 1× with water/0.1% Tween20
9. Block with 100 μl 5% milk/TBS-T
10. Incubate for 30 minutes at 37° C.
11. 100 μl primary antibody diluted in 5% milk/TBS-T added to each well (CST #9336 Phospho-Ser9 GSK3β antibody used at 1:250)
• include a column control with no 1 ab—just 5% milk/TBS-T • can also include a column of Zymed rabbit IgG (02-6102-5 mg/mL) control diluted in 5% milk/TBS-T to the same concentration as the phospho-Ser9 GSK3β if required 12. Incubate overnight at 4° C. 13. Wash 3× with water/0.1% Tween20 14. 100 μl secondary antibody diluted in Delfia Assay Buffer added to each well (Delfia Eu—N1 anti-rabbit IgG antibody used at 0.30 μg/ml final conc) 15. Incubate for 1 hour at 37° C. 16. Wash 3× with water/0.1% Tween20 17. 100 μl Delfia Enhancement Solution added to each well 18. Shake on plate shaker for 15 minutes 19. Read on Delfia programme (excitation 340 nm−emission […])=Europium counts 20. Wash 1× with water/0.1% Tween 20 21. 200 μl BCA solution added per well (BCA with 1:50 Copper II Sulfate) 22. Incubate for 30 minutes at 37° C. 23. Read at absorbance 562 nm=protein concentration

[4] = target: T2, PKA catalytic domain (Homo sapiens, UniProt P17612); test: PKA kinase inhibitory activity, radiometric assay; format: biochemical
T2 construct: using the PKA catalytic domain from Upstate Biotechnology (#14-440); purchased Upstate Biotechnology 14-440
Description: A final concentration of 1 nM enzyme is used in a buffer that includes 20 mM MOPS pH 7.2, 40 μM ATP/γ^33P-ATP and […] substrate. Compounds are added in dimethylsulphoxide (DMSO) solution to a final DMSO concentration of 2.5%. The reaction is allowed to proceed for 20 minutes before addition of excess orthophosphoric acid to quench activity. Unincorporated γ^33P-ATP is then separated from phosphorylated proteins on a Millipore MAPH filter plate. The plates are washed, scintillant is added and the plates are then subjected to counting on a Packard Topcount.

[5] = target: PKB (Homo sapiens, UniProt P31751); test: Activity against the kinase PKB (method not given); settings: compound and its acid addition salts
[6] = target: T3, P70S6 kinase (T412E) (Homo sapiens, UniProt P23443, T412E); test: p70S6K radiometric assay; format: biochemical; settings: approximately 15 μM ATP
T3 construct: purchased Upstate 14-486
T3 sequence (P23443 1-421 T412E limits assumed): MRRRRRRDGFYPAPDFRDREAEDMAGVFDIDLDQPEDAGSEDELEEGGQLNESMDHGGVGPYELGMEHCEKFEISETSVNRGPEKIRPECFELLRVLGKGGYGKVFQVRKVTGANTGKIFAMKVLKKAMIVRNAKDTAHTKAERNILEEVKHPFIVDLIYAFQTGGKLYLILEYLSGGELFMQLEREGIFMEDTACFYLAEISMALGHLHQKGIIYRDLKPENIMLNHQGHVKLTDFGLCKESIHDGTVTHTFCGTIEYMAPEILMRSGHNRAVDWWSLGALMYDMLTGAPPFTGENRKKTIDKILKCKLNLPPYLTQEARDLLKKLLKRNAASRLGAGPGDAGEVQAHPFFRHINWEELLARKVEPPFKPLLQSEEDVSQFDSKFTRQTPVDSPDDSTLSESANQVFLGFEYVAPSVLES
Description: P70S6 enzyme is bought from Upstate and used at 2 nM in the assay.
The substrate S6 cocktail ([…]) is used at […] (Km has not been determined). In the phosphoryl transfer reaction, the ^33P-γ phosphate from ATP is transferred to the serine residue. The reaction mixture is transferred to a phosphocellulose filter plate where the peptide binds and the unused ATP is washed away. After washing, scintillant is added and the incorporated activity measured by scintillation counting.
S6 kinase substrate cocktail from Upstate (#20-122)
Assay Buffer 10 mM MOPS pH 7.0
• 0.1 mg/ml BSA • 0.001% Brij-35 • 0.5% glycerol • 0.2 mM EDTA • 10 mM MgCl2 • 0.01% β-mercaptoethanol • Made as a 10× stock, stored at […] in 2 ml aliquots • 15 μM ATP
Compounds—prepare a dilution curve in DMSO in a polypropylene 96 well plate to 40× final assay concentration (final DMSO 2.5%).
• 5 μl compound • 10 μl substrate mix • 10 μl enzyme mix
Final ATP concentration is approximately 15 μM. KM for ATP calculated to 47 uM radiometrically. Controls are “no compound” (DMSO only) and “no enzyme” (use 10 μl of the enzyme mix prior to adding enzyme). Cover with a plate seal (TopSeal A—Packard) or plastic lid from filter plate (moderate radiation barrier). Mix by gentle shaking. Incubate at room temperature for 50 minutes. Stop the reaction by adding 20 μl of 2% orthophosphoric acid. […]

[7] = target: T4, CYP450 2D6 (Homo sapiens, UniProt P10635); test: Potency against cytochrome P450 2D6 (Vivid screening kit); format: in vitro ADME; settings: tested at a concentration of 10 μM
T4 construct: purchased Invitrogen (Paisley, UK), Pan Vera Vivid screening kits; host or cells: baculosomes
T4 sequence (P10635 whole entry): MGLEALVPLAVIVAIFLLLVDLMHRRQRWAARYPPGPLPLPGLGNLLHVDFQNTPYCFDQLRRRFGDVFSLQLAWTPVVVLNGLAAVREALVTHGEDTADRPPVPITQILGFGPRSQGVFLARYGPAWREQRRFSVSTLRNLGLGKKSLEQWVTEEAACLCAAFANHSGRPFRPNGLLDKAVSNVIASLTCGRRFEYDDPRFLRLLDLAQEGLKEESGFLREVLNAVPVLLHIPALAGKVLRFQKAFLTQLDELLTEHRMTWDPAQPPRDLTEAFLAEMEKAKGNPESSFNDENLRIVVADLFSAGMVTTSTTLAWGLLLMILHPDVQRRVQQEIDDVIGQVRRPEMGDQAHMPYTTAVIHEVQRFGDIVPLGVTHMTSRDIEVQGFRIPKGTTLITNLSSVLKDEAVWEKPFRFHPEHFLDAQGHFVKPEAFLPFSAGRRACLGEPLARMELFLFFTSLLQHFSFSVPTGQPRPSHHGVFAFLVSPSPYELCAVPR
Description: (§1) The potency of the compound of Example 1 against cytochrome P450 (CYP450) enzymes 1A2, 2C9, 2C19, 3A4 and 2D6 was determined using the Pan Vera Vivid C450 screening kits available from Invitrogen (Paisley, UK). The CYP450s were supplied in the form of baculosomes containing the CYP450 and NADPH reductase and the substrates used were the fluorescent Vivid substrates. The final reaction mixtures were as follows:
100 mM potassium phosphate, pH 8, 1% acetonitrile, 5 μM 2D6 Blue vivid substrate, 100 μM NADP^+, 16 nM CYP450 2D6, 2.66 mM glucose-6-phosphate, 0.32 U/ml glucose-6-phosphate dehydrogenase.
(§2) Fluorescence was monitored for 20 minutes at 30 second intervals on a Fluoroskan fluorescence plate reader. The excitation and emission wavelengths were 390 nm and 460 nm for 1A2, 2C19 and 3A4, 390 nm and 485 nm for 2D6 and 485 nm and 530 nm for 2C9. Initial rates were determined from progress curves.
(§3) The test compound was made up in acetonitrile and tested against the CYP450s at a concentration of 10 μM.

[8] = target: T5, CYP450 2C19 (Homo sapiens, UniProt P33261); test: Potency against cytochrome P450 2C19 (Vivid screening kit); format: in vitro ADME; settings: tested at a concentration of 10 μM
T5 construct: purchased Invitrogen (Paisley, UK), Pan Vera Vivid screening kits; host or cells: baculosomes
T5 sequence (P33261 whole entry): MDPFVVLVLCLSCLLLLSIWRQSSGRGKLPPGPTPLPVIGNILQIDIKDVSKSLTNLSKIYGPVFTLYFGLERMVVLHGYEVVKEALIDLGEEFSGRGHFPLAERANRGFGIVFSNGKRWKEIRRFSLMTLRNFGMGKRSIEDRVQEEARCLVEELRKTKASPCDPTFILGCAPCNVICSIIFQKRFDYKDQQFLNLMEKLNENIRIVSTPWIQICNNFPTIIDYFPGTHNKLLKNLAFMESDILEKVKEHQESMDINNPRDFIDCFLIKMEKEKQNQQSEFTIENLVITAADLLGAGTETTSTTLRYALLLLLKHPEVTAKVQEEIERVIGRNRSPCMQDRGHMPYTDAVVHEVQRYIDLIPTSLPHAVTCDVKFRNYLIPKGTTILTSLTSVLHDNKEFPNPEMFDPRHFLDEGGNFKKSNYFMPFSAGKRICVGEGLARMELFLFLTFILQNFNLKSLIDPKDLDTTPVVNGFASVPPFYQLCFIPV
Description: as §1
50 mM potassium phosphate, pH 8, 1% acetonitrile, 8 μM Blue vivid substrate, 100 μM NADP^+, 4 nM CYP450 2C19, 2.66 mM glucose-6-phosphate, 0.32 U/ml glucose-6-phosphate dehydrogenase.
as §2, §3

[9] = target: ROCK-II (h) (Homo sapiens, UniProt O75116); test: ROCK-II (h) assay; format: biochemical; settings: below the limit of the assay
ROCK-II (h), sequence (O75116 whole entry): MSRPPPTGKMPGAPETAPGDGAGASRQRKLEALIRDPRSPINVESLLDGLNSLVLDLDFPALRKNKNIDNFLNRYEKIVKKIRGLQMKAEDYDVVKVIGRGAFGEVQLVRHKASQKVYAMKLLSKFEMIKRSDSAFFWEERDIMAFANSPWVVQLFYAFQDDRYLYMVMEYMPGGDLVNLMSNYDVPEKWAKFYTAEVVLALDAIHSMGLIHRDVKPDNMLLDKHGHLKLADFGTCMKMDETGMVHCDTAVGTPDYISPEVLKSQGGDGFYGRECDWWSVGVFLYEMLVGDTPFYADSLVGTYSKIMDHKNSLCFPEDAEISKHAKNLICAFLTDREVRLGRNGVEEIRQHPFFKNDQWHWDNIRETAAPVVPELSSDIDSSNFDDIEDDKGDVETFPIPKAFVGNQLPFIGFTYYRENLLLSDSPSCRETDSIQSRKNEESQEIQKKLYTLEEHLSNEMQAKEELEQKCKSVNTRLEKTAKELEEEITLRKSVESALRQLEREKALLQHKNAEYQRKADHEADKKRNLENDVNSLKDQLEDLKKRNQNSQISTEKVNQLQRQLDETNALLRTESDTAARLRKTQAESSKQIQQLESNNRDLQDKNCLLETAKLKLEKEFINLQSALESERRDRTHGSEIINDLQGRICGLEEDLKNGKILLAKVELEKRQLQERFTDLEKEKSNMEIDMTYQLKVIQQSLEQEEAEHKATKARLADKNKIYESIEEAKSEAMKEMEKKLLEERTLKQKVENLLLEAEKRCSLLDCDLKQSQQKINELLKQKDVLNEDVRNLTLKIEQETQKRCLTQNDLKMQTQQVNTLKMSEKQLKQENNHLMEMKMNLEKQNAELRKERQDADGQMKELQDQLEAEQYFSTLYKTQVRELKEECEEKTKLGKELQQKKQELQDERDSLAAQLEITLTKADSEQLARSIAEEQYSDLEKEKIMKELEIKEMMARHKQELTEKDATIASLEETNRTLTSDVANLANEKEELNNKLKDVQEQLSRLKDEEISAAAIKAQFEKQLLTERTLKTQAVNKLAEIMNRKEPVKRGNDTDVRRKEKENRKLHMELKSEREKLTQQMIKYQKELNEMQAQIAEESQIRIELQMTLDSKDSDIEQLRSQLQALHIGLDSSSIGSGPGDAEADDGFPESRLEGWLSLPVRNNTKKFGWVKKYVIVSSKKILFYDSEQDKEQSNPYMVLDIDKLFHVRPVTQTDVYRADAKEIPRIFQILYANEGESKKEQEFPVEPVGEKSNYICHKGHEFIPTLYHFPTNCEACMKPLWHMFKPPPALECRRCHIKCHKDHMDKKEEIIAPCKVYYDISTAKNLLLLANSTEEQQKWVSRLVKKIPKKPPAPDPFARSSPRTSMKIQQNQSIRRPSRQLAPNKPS
Description: In a final reaction volume of 25 μl ROCK-II (h) (5-10 mU) is incubated with 50 mM Tris pH 7.5, 0.1 mM EGTA, 30 μM […], 10 mM MgAcetate and [γ-^33P-ATP] (specific activity approx. 500 cpm/pmol, concentration as required). The reaction is initiated by the addition of the MgATP mix. After incubation for 40 minutes at room temperature, the reaction is stopped by the addition of 5 μl of a 3% phosphoric acid solution. 10 μl of the reaction is then spotted onto a P30 filtermat and washed three times for 5 minutes in 75 mM phosphoric acid and once in methanol prior to drying and scintillation counting.

[10] = target: hERG K+ ion channel (Homo sapiens, UniProt Q12809); test: hERG activity
hERG K+ ion channel, sequence (Q12809 whole entry): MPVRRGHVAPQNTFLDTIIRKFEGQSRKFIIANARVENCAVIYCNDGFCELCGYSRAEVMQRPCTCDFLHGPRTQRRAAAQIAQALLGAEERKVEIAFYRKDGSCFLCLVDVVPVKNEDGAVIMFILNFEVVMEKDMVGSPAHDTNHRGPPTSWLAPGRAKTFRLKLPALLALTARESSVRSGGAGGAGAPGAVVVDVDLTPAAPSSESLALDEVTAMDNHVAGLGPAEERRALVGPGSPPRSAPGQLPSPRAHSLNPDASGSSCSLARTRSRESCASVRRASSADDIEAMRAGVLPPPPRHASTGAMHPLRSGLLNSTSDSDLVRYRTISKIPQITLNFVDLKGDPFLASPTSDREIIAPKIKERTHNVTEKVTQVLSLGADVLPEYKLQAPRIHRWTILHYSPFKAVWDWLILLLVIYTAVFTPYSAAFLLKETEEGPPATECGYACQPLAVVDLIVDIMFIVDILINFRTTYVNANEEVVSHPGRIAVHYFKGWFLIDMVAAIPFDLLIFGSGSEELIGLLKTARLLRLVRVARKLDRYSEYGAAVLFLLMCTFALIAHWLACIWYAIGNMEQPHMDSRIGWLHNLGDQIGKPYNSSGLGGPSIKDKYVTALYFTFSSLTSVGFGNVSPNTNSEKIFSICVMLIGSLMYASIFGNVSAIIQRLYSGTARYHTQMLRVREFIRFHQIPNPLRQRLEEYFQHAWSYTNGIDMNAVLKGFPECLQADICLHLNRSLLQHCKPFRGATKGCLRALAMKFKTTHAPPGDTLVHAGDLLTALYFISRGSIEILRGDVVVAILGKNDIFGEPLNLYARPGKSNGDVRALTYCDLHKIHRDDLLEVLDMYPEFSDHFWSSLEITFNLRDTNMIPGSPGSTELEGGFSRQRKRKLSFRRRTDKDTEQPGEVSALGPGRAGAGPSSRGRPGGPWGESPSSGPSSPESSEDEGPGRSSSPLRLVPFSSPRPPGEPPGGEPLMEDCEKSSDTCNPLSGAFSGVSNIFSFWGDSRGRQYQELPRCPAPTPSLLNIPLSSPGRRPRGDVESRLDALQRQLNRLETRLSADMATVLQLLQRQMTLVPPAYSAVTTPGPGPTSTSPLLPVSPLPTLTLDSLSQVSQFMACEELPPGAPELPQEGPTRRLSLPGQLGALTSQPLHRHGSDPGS

[11] = target: T6, CYP450 2C9 (Homo sapiens, UniProt P11712); test: Potency against cytochrome P450 2C9 (Vivid screening kit); format: in vitro ADME; settings: tested at a concentration of 10 μM
T6 construct: purchased Invitrogen (Paisley, UK), Pan Vera Vivid screening kits; host or cells: baculosomes
T6 sequence (P11712 whole entry): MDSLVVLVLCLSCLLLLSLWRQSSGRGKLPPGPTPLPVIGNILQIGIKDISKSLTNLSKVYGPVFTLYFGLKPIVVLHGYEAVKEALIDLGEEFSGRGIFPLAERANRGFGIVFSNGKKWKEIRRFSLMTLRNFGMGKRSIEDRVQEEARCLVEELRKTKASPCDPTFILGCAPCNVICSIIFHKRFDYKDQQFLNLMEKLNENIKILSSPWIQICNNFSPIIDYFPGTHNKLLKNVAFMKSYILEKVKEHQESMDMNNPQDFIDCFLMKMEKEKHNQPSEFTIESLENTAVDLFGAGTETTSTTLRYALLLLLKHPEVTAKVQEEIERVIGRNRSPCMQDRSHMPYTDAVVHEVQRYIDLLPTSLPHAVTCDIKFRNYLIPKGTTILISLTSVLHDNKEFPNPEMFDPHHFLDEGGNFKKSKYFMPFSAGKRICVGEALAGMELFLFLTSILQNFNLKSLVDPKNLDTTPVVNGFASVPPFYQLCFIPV
Description: as §1
50 mM potassium phosphate, pH 8, 1% acetonitrile, 2 μM Green vivid substrate, 100 μM NADP^+, 8 nM CYP450 2C9, 2.66 mM glucose-6-phosphate, 0.32 U/ml glucose-6-phosphate dehydrogenase.
as §2, §3

[12] = target: T7, CYP450 1A2 (Homo sapiens, UniProt P05177); test: Potency against cytochrome P450 1A2 (Vivid screening kit); format: in vitro ADME; settings: tested at a concentration of 10 μM
T7 construct: purchased Invitrogen (Paisley, UK), Pan Vera Vivid screening kits; host or cells: baculosomes
T7 sequence (P05177 1-516): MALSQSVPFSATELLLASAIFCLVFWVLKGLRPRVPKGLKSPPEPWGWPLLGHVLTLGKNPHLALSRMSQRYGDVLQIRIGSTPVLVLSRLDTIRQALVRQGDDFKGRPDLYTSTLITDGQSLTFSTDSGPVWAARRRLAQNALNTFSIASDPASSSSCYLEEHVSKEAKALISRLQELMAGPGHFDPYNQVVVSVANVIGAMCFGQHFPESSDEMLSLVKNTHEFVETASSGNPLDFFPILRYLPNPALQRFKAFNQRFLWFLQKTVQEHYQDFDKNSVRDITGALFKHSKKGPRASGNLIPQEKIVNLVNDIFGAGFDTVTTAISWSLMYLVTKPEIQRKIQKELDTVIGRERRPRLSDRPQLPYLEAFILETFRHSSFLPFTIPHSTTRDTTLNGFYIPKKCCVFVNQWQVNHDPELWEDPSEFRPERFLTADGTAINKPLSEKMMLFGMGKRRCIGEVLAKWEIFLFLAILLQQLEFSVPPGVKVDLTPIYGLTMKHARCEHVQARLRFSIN
Description: as §1
100 mM potassium phosphate, pH 8, 1% acetonitrile, 2 μM 1A2 Blue vivid substrate, 100 μM NADP^+, 4 nM CYP450 1A2, 2.66 mM glucose-6-phosphate, 0.32 U/ml glucose-6-phosphate dehydrogenase.
as §2, §3

With `CNC[C@@H](c1ccc(Cl)cc1)c1ccc(-c2cn[nH]c2)cc1` (single isomer, unassigned) [Isomer A] the “fold more active against PKB than its antipode” value [1] was 10 fold.

For `C[C@@H](N)[C@H]1CC[C@H](C(=O)Nc2ccncc2)CC1` [Example Y-27632], the “effective doses for the use of this compound” value [2] is given as “approximately 30 uM”.

In the case of `NC[C@H](c1ccc(Cl)cc1)c1ccc(-c2cn[nH]c2)cc1` (single isomer, unassigned) [Isomer D], the “activity in mechanistic cellular ELISA assay” value [3] is reported as “essentially equipotent”.

In the case of `NC[C@](O)(c1ccc(Cl)cc1)c1ccc(-c2cn[nH]c2)cc1` [R-enantiomer, (R)-2-amino-1-(4-chloro-phenyl)-1-[4-(1H-pyrazol-4-yl)-phenyl]-ethanol], the IC50 ([4]; isolated enzyme, read-out: IC50 against PKA) is reported as 0.25 µM, the IC50 ([3]; Homo sapiens, U-87 MG, U87MG cells, 1 hour with inhibitor) is reported as > 50 µM and the “activity in mechanistic cellular ELISA assay” value [3] is reported as “no measurable activity”.

For `NC[C@@H](c1ccc(Cl)cc1)c1ccc(-c2cn[nH]c2)cc1` (single isomer, unassigned) [Isomer C], the “activity in mechanistic cellular ELISA assay” value [3] was “essentially equipotent” and the “fold more active against PKB than its antipode” value [1] was “about 10 fold”.

For `NCC(O)(c1ccc(Cl)cc1)c1ccc(I)cc1` (racemic) [compound of the formula (12), 2-amino-1-(4-chloro-phenyl)-1-[4-iodo-phenyl]-ethanol], the “activity against the kinase PKB” value [5] was “have activity against the kinase PKB”.

In the case of `NC[C@@](O)(c1ccc(Cl)cc1)c1ccc(-c2cn[nH]c2)cc1` [compound of formula (I), (S)-2-amino-1-(4-chloro-phenyl)-1-[4-(1H-pyrazol-4-yl)-phenyl]-ethanol], the IC50 [6] is reported as 0.012 µM, the IC50 [7] is reported as > 10 µM and the inhibition at 0.03 µM ([4]; at a concentration of 0.03 μM) is reported as 44%. The “activity in mechanistic cellular ELISA assay” value [3] was “good activity”, the IC50 [8] was > 10 µM and the IC50 [9] was < 0.01 µM. For the same compound, the “hERG ion channel blocking activity” value [10] was “negligible”, the IC50 [11] was > 10 µM and the IC50 [12] was > 10 µM.
